Laboratory results taken from US8158621B2, “Methods of treating or preventing autoimmune diseases with 2,4-pyrimidinediamine compounds” (Rigel Pharmaceuticals, Inc., priority 2002, dated 2012).

Legend:
[1] = test system: cultured human mast cells (CHMC); assay: CHMC low cell density ionomycin activation: tryptase assay; format: cell-based
[2] = test system: cultured human mast cells (CHMC); assay: CHMC low cell density IgE activation: LTC4 assay; format: cell-based; conditions: anti-IgE activation, LTC4 release
Experimental: Pellet CHMC cells (980 rpm, 10 min) and resuspend in pre-warmed MT. Add 65 ul of cells to each 96-well plate. Depending on the degranulation activity for each particular CHMC donor, load 1000-1500 cells/well. Mix four times followed by a 1 hr incubation at 37° C. […] Stimulate cells by adding 25 ul of 6× anti-IgE solution to the appropriate plates. Add 25 ul MT to un-stimulated control wells. Mix twice following addition of the anti-IgE. Incubate at 37° C. for 30 minutes. […] Spin plates at 1000 rpm for 10 min to pellet cells. Transfer 25 ul of supernatant to a 96-well black bottom plate and add 100 ul of freshly diluted tryptase substrate solution to each well. Incubate plates at room temperature for 30 min.
Leukotriene C4 (LTC4) is also quantified using an ELISA kit on appropriately diluted supernatant samples (determined empirically for each donor cell population so that the sample measurement falls within the standard curve) following the supplier's instructions.

[3] = test system: Human Jurkat T-cells (clone N); assay: Jurkat T-cell activation (anti-TCR, CD69 upregulation); format: cell-based
Summary of the method: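 Jurkat cells in RPMI + 5% FBS preincubated with compound 1 h at 37 °C, then stimulated with anti-TCR C305 at 500 ng/ml for 20 h. CD69 surface expression stained with anti-CD69-APC and read by flow cytometry; IC50 versus solvent-only control.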

[4] = test system: Jurkat cells; assay: Jurkat (T-cell) toxicity, light scatter; format: cell-based, human; conditions: read-out: Toxicity Jurkat Light Scat.
Experimental: Dilute Jurkat cells to 2×10^5 cells/ml in complete RPMI (10% heat-inactivated fetal bovine serum) media and incubate at 37° C., 5% CO2 for 18 hours. Add 65 ul cells at 7.7×10^5 cells/ml to a 96-well V-bottom plate (TC-treated, Costar) containing 65 ul 2× compound (final vehicle concentration is 0.5% DMSO, 1.5% MeOH). Mix, incubate plates for 18-24 hr at 37° C., 5% CO2. Toxicity was assessed by flow cytometric analysis of cellular light scatter

[5] = test system: B-cell line BJAB; assay: BJAB (B-cell) toxicity, light scatter; format: cell-based; conditions: read-out: Toxicity BJAB Light Scat.
Experimental: The B-cell line BJAB was cultured in log phase in RPMI1640+10% heat-inactivated fetal bovine serum, 1× L-glutamine, 1× penicillin, 1× […] and 1× beta-mercaptoethanol at 37° C., 5% CO2. First, BJABs were harvested, spun and resuspended in culture medium to a concentration of 7.7×10^5 cells/mL. 65 uL cells were mixed with 65 uL compound, in duplicate and in the presence of 0.1% DMSO in a V-bottomed 96-well tissue culture plate. Cells were incubated with compound at various dilutions at 37° C., 5% CO2. Toxicity was assessed by flow cytometric analysis of cellular light scatter.

[6] = test system: cultured human mast cells (CHMC); assay: CHMC low cell density IgE activation: tryptase assay; format: cell-based
Summary of the method: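 CHMC resuspended in pre-warmed MT buffer at 1000-1500 cells/well (donor-dependent) and preincubated 1 hr at 37° C, then stimulated with anti-IgE for 30 min at 37° C; unstimulated wells got MT alone. Supernatant tryptase activity read with tryptase substrate after 30 min at room temperature.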

[7] = test system: IgE-induced degranulation of tissue mast cells; assay: Mouse model of passive cutaneous anaphylaxis (PCA); format: in vivo; conditions: oral route in a PEG-based formulation (data not shown)
Experimental: This model provides a direct measure of IgE-induced degranulation of tissue mast cells. In this model, IgE primed animals are exposed to an allergen challenge, and the change in permeability of dermal vasculature that results from histamine release from mast cells is measured by change in the amount of dye leakage into surrounding tissue. Inhibition of mediator release by compounds that modulate mast cell degranulation is easily measured by extracting the dye from the tissue.
In the PCA assay mice are passively sensitized by intradermal injection with anti-dinitrophenol (DNP) IgE antibodies (Day −1). At predetermined times animals are treated with the test agent (Day 0). The modulatory effect of the agent on cutaneous mast cell degranulation is measured following intravenous injection of DNP conjugated to human serum albumin (HSA-DNP), together with Evans blue dye. The resulting cross-linking of the IgE receptor and subsequent mast cell degranulation-induced increase in vascular permeability is determined by measuring the amount of dye extravasation into the tissue. Dye is extracted from the tissue by formamide, and the absorbance of this extract is read at 620 nm.

[8] = test system: Primary T-cells; assay: Primary T-cell cytokine production (αCD3/αCD28): IL-2; format: cell-based, human; conditions: read-out: 1° T-Cell IL2 IC50
Experimental: 2E8-4E8 PBMC or proliferating T cells grown in rIL-2 from healthy human donors were suspended in PBS were spun down (1500 rpm, 8-10 minutes) and resuspended in 100 ml RPMI Complete media (1% Pen-Strep, 1% L-Glutamine, 10 mM HEPES). The cells were plated in T175 flasks (37° C., 5% CO2) and monocytes were allowed to adhere for 2-3 hours. After monocyte attachment, non-adherent cells were harvested, counted by hemocytometer, washed several times with PBS then resuspended in Yssels Complete Media (Modified IMDM Media with 1% Human AB Serum, 1% Pen-Strep, 1% L-Glutamine, 10 mM HEPES) at […]. 90 uL of the cell dilution were then added to compounds diluted to 2× in Yssel's media and incubated for 30 minutes at 37° C. (5% CO2). After this preincubation step the compound/cell mixture was transferred to stimulation plates, as described below.
Stimulation plates were prepared by coating 96 well plates with 5 μg/ml αCD3 (BD PharMingen, Catalog #555336)+10 μg/ml αCD28 (Beckman Coulter, Catalog #IM1376) in PBS (no Ca^2+/Mg^2+) at 37° C. (5% CO2) for at 3-5 hours. After incubation with the stimulation antibodies, the cocktail was removed and the plates washed 3 times with PBS prior to addition of the primary T cell/compound mixture.
The compound/cell mixture was transferred to the stimulation plates and incubated for 18 hr at 37° C. (5% CO2). After the cell stimulation, ˜150 μl supernatant were transferred from each well into 96-well filter plates (Coming PVDF Filter Plates) spun down (2000 rpm, 2-3 minutes) and either used immediately for ELISA or LUMINEX measurements or frozen down at −80° C. for future use.
IL-2 ELISAs were performed using the Quantikine Human IL-2 ELISA kit (R&D Systems, Catalog # D2050) as described by the manufacturer and absorption was measured on a spectrophotometer at 450 nm wavelength. Blank values were substracted and absorbances were converted to pg/mL based on the standard curve.
Luminex immunoassay multiplexing for TNF, IL-2, GMSCF, IL-4 and IFNg was performed essentially as described by the manufacturer (Upstate Biotechnology). Essentially 50 uL of sample was diluted into 50 uL assay diluent and 50 uL incubation buffer, then incubated with 100 uL of the diluted detection antibody for 1 hr at RT in the dark. The filter plate was washed 2× in Wash Buffer, then incubated with 100 uL of the diluted secondary reagent (SAV-RPE) for 30 min at RT in the dark. Finally the plates were washed 3 times and bead identification and RPE fluorescent measured by the Luminex instrument.
Varied concentrations of compound were compared to solvent only to determine the inhibition of T-cell activation IC50 of each compound.

[9] = Sheep model of allergic asthma; format: in vivo
Experimental: In the sheep model of allergic asthma, sheep are administered aerosols of test article via an endotracheal tube, followed by an aerosol challenge with antigen extracted from the roundworm, Ascaris suum, to which the sheep are naturally allergic. Allergen challenge leads to direct bronchoconstriction (both EAR and LAR) and a persistent non-specific AHR. These three characteristics are similar to those seen in human allergic asthmatics. The activity of the test agent is determined by changes in the lung resistance (RL), which is calculated from measurements of transpulmonary pressure, flow, and respiratory volume. […] The LAR is a less pronounced increase in RL, which starts approximately 5-6 hours following allergen challenge and is resolved by 8 hours post-challenge. Twenty-four hours after the challenge, a dose response to carbachol is measured to determine the AHR, which is expressed as the dose of carbachol required to increase RL by 400% over baseline. (This measurement is referred to as the provocative concentration of carbachol that elicits a 400% increase in RL over baseline (PC400). The data are compared to historical control data for the same individual when administered a saline control aerosol and challenged with Ascaris suum.

[10] = test system: basophil cells (human peripheral blood); assay: Basophil ionomycin activation: histamine release assay; format: cell-based; conditions: basophils, ionomycin activation, histamine release; read-out: Basophils Ionomycin Histamine IC50
Experimental: The basophil activation assay was carried out using whole human peripheral blood from donors allergic to dust mites with the majority of the red blood cells removed by dextran sedimentation. Human peripheral blood was mixed 1:1 with 3% dextran T500 and RBCs were allowed to settle for 20-25min. The upper fraction was diluted with 3 volumes of D-PBS and cells were spun down for 10 min at 1500 rpm, RT. Supernatant was aspirated and cells were washed in an equal volume MT-buffer. Finally, cells were resuspended in MT-buffer containing 0.5% DMSO in the original blood volume. 80 uL cells were mixed with 20 uL compound in the presence of 0.5% DMSO, in triplicate, in a V-bottom 96-well tissue culture plate. A dose range of 8 compound concentrations was tested resulting in a 10-point dose response curve including maximum (stimulated) and minimum (unstimulated) response. […] The cells were stimulated for 30 minutes at 37° C., 5% CO2. The plate was spun for 10 min at 1500 rpm at room temperature and 80 uL the supernatant was harvested for histamine content analysis using the histamine ELISA kit supplied by Immunotech. The ELISA was performed according to supplier's instructions.
Assays for ionomycin-induced basophil cell degranulation were carried out as described for the Basophil IgE or Dustmite Activation Assay (Section 7.5.5, supra), with the exception that following incubation with compound, cells were stimulated with 20 μl of 2 μM ionomycin.

[11] = molecular target: T1, Syk kinase (Homo sapiens, UniProt P43405); assay: Syk kinase biochemical fluorescence polarization assay; conditions: isolated Syk kinase, fluorescence polarization, 4 uM ATP
T1 construct: purchased Upstate, Lake Placid NY

[12] = test system: FcγRI-mediated degranulation; assay: FcγRI-mediated degranulation (anti-human IgG Fab activation); format: cell-based; conditions: cells not primed with IgE, activated with rabbit anti-human IgG Fab fragment
[13] = Low Density CHMC, ionomycin activation, tryptase release, read-out: CHMC Ionomycin Tryptase IC50
[14] = Low Density CHMC, anti-IgE activation, tryptase release, read-out: CHMC anti-IgE Tryptase IC50
[15] = dose, pretreatment and vehicle per compound as in TABLE 5

Q: Which IC50 [1, 13] does the source give for Cc1cnc(Nc2cccc(O)c2)nc1Nc1cccc(O)c1 [Compound R926248] here?
A: > 10000 nM

Q: What about the IC50 [2] of the same compound?
A: 760 nM

Q: What about the IC50 [3] of the same compound?
A: 1540 nM

Q: And the IC50 [4]?
A: > 10000 nM

Q: What about the IC50 [5] of the same compound?
A: > 10000 nM

Q: What about the IC50 [6, 14] of the same compound?
A: 900 nM

Q: Which PCA response [7] does the source give for CNC(=O)COc1cccc(Nc2ncc(C(F)(F)F)c(Nc3cccc(O)c3)n2)c1 [Compound R926742] here?
A: able to inhibit the PCA response

Q: What about the IC50 [8] of the same compound?
A: 717 nM

Q: What about the EAR ([9]; administered in an aqueous suspension) of the same compound?
A: failed to inhibit

Q: And the “LAR and AHR” value [9, 15]?
A: blocked

Q: And the IC50 [10]?
A: > 10000 nM

Q: And the IC50 [11]?
A: 76 nM

Q: For CC(=O)Oc1cccc(Nc2ncc(F)c(Nc3cccc(OC(C)=O)c3)n2)c1 [Compound R926387], which IC50 [1, 13] is on record?
A: > 10000 nM

Q: And the IC50 [2]?
A: 700 nM

Q: And the IC50 [3]?
A: 3850 nM

Q: And the IC50 [4]?
A: > 10000 nM

Q: What about the IC50 [5] of the same compound?
A: > 10000 nM

Q: And the IC50 [6, 14]?
A: 650 nM

Q: What does the source list for Oc1cccc(Nc2ncc(Br)c(Nc3cccc(O)c3)n2)c1 [Compound R925778]?
A: IC50 [1, 13]: > 10000 nM; IC50 [2]: 180 nM; IC50 [3]: 3400 nM; IC50 [4]: > 10000 nM; IC50 [5]: > 10000 nM; IC50 [6, 14]: 225 nM

Q: Which results are given for CNC(=O)COc1cccc(Nc2ncc(F)c(Nc3ccc4c(c3)OCCO4)n2)c1 [Compound R926495]?
A: IC50 [3]: 11900 nM; IC50 [8]: 643 nM; EAR [9, 15]: greatly reduced; LAR and AHR [9, 15]: blocked; IC50 [10]: > 10000 nM

Q: Which IC50 [1, 13] does the source give for Oc1cccc(Nc2ccnc(Nc3cccc(O)c3)n2)c1 [Compound R926249] here?
A: > 10000 nM

Q: And the IC50 [2]?
A: 250 nM

Q: And the IC50 [3]?
A: 954 nM

Q: What about the IC50 [4] of the same compound?
A: > 10000 nM

Q: What about the IC50 [5] of the same compound?
A: > 10000 nM

Q: What about the IC50 [6, 14] of the same compound?
A: 500 nM

Q: Which results are given for Oc1cccc(Nc2nc(Nc3ccc4c(c3)OCCO4)ncc2Br)c1 [Compound R925797]?
A: IC50 [1, 13]: > 10000 nM; IC50 [2]: 280 nM; IC50 [3]: 1510 nM; IC50 [4]: > 10000 nM; IC50 [5]: > 10000 nM; IC50 [6, 14]: 850 nM

Q: What does the source list for Cc1cc(Nc2ncc(F)c(Nc3ccc4c(c3)NC(=O)C(F)(F)O4)n2)cc(Cl)c1O [Compound R926971]?
A: IC50 ([1]; low cell density, read-out: CHMC Ionomycin Tryptase): > 10000 nM; inhibition of FcγRI-mediated degranulation [12]: inhibit FcγRI-mediated degranulation; IC50 [11]: 8 nM; IC50 ([6]; low cell density, read-out: CHMC anti-IgE Tryptase): 34 nM
